The assay deals with T1, full length AKT1 (Homo sapiens, UniProt P31749).
T1 construct: His tag (from vector pFastBacHTb) (N); made in house; host or cells: Baculovirus, insect cells (virus made in Sf9, T. ni cells infected; the purification text says sf9 cells)
As to the kind of experiment: Full-length AKT enzyme assay (substrate phosphorylation, SPA). Format: biochemical. The settings on record: in at least one experimental run; pIC50 = -log(IC50), IC50 in molar units; 4 uM ATP, 10 nM activated enzyme; read-out: pIC50 against full length AKT1 (converted). The source says:
Full-length human AKT1 gene was amplified by PCR from a plasmid containing myristylated-AKT1-ER (gift from Robert T. Abraham, Duke University under MTA, described in Klippel et al. in Molecular and Cellular Biology 1998 Volume 18 p. 5699) using the 5′ primer: SEQ. ID NO: 2 5′ […] 3′ and the 3′ primer: SEQ. ID NO: 3 […] 3′. The 5′ primer included a BamHI site and the 3′ primer included an XhoI site for cloning purposes. The resultant PCR product was subcloned in pcDNA3 as a BamHI/XhoI fragment. A mutation in the sequence (TGC) coding for a Cysteine^25 was converted to the wild-type AKT1 sequence (CGC) coding for an Arginine^25 by site-directed mutagenesis using the QuikChange® Site Directed Mutagenesis Kit (Stratagene). The AKT1 mutagenic primer: SEQ. ID NO: 4 5′[…] and selection primer: SEQ. […] For expression/purification purposes, AKT1 was isolated as a BamHI/XhoI fragment and cloned into the BamHI/XhoI sites of pFastbacHTb (Invitrogen).
Expression was done using the BAC-to-BAC Baculovirus Expression System from Invitrogen (catalog #10359-016). […]
Compounds of the present invention were tested for AKT 1, 2, and 3 protein serine kinase inhibitory activity in substrate phosphorylation assays. […] Substrate phosphorylation was detected by the following procedure. […]

T1 sequence (P31749 whole entry): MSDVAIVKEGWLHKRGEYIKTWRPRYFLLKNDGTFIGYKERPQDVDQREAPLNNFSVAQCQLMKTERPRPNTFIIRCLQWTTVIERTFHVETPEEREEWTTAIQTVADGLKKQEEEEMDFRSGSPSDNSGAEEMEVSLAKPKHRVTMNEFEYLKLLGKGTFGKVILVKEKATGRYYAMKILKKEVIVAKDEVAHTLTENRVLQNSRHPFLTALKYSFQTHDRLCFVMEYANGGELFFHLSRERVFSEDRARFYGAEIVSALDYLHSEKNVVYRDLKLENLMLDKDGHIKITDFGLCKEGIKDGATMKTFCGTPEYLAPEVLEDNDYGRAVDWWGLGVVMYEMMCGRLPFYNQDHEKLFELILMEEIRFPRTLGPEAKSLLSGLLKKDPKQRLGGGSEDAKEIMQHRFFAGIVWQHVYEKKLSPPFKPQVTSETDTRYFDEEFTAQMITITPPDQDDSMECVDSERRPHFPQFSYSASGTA

For `Cn1nccc1-c1nc(C(=O)N[C@H](CN)Cc2cccc(F)c2)cs1` [Example 1, N-{(1S)-2-amino-1-[(3-fluorophenyl)methyl]ethyl}-2-(1-methyl-1H-pyrazol-5-yl)-1,3-thiazole-4-carboxamide], the IC50 was 501 nM.

Source of the values: patent US20110160255A1, “INHIBITORS OF AKT ACTIVITY” (priority 2008, published 2011).
